Earlier results on 5 compounds are cited in patent publication US11419828B2, “Hair care terpinen 4-ol (T4O) composition for the treatment of demodex mites on scalp” (priority 2021, dated 2022).

For data set [1] the following is noted: at levels up to 75%.
In data set [2] the test system is Demodex. The settings on record: 38% concentration of terpinen-4-ol, over a period of 4 weeks.
Data set [3] deals with Demodex mites. The conditions noted are these: 75% alcohol, 10% povidone-iodine, erythromycin.

With `OCCCO` [Propanediol, Propanediol 1,3], the “potential to irritate or sensitize skin” value in data set [1] is “low potential to irritate or sensitize skin”.
For `CC1=CCC(O)(C(C)C)CC1` (centres unmarked) [terpinen-4-ol, Terpinen-4-ol], in data set [2], the “reduction of Demodex” value is “reduce Demodex effectively”.
In the case of `CC[C@H]1OC(=O)[C@H](C)[C@@H](O[C@H]2C[C@@](C)(OC)[C@@H](O)[C@H](C)O2)[C@H](C)[C@@H](O[C@@H]2O[C@H](C)C[C@H](N(C)C)[C@H]2O)[C@](C)(O)C[C@@H](C)C(=O)[C@H](C)[C@@H](O)[C@]1(C)O` [erythromycin], the “Demodex mites' resistance to antiseptic agent” value (shortened to “Demodex mites' resistance”) in data set [3] was “resistant”.
In the case of `CCO` [alcohol], in data set [3], the “Demodex mites' resistance” value is reported as “resistant”.
Regarding povidone-iodine, the “Demodex mites' resistance” value in data set [3] is given as “resistant”.
